The test system of this experiment is mononucleosomes. Kind of experiment: LANA peptide competition. The class given is binding. The protocol: The LANA peptide competition was set up in a similar manner as the peptide pull-down experiments with the following exceptions: SMARCB1-CC (aa 351-385) biotin-labeled peptides at 10 μM in EB150 were bound to Streptavidin Dynabeads® (Pierce™ Streptavidin Magnetic Beads, Thermo Scientific) in parallel to […] of mononucleosomes incubated with LANA peptide (KE Biochem) at varying concentrations ranging from 0-30 μM overnight at 4° C. Beads were washed 3 times in EB150, and resuspended with the mononucleosome/LANA peptide solutions. The suspension was rotated for 3-5 hours at 4° C. The beads were washed 3-5 times in EB150, and eluted in Sample Buffer (2×LDS with 200 mM DTT) to load onto […] Tricine gels.

Consider MAPPGMRLRSGRSTGAPLTRGSC [LANA Peptide], for which the “antagonism of SMARCB1 CC domain-nucleosome interaction in competition experiments” value was “only partially antagonized”. The “changes in SMARCB1 C-terminal domain peptide-nucleosome binding in LANA peptide competition” value (1-20 uM concentration gradient, visualization of H3) was “minimal changes”.

Values taken from US20220396604A1, “COMPOSITIONS COMPRISING MODIFIED SMARCB1 AND USES THEREOF” (Dana-Farber Cancer Institute, Inc., priority 2019, published 2022).
